Experimental data reported in US20260001928A1 (CORTERIA PHARMACEUTICALS, priority 2022, published 2026).
*1 amine or outer side, *2 acyl side, *3 side chain or, on linkers, in order; H or OH if unused. Where a SMILES comes first, the peptide text is derived from it. Side-chain parts run from the residue outwards. [ ]: non-standard residue; d: D form. The star is where a group is joined. C16 diacid = O=C(O)CCCCCCCCCCCCCCC(=O)*; γGlu = O=C(O)[C@H](CCC(=O)[*:2])N[*:1]; αMeL = CC(C)C[C@](C)(N)C(=O)O; Aib = CC(C)(N)C(=O)O

Key:
Sprague Dawley rats = experiment: Effect on systolic blood pressure, telemetry in Sprague Dawley rats; assay type: in vivo, rat; settings: 0.1 mg/kg SC; for Systolic blood pressure (Mean) % change from baseline, 8 h / Systolic blood pressure (Mean) % change from baseline, 12 h / Systolic blood pressure (Mean) % change from baseline, 24 h: n=2; for Duration of action: last time point with an effect on BP still observed
Summary of the method: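 Sprague Dawley rats with abdominal-aorta telemetry catheters, recovered ≥10 days, received 0.1 mg/kg SC of compound or vehicle. Systolic pressure recorded 1 h pre-dose as baseline, then continuously up to 48 hours, expressed as % change from baseline; duration of action is last time point with a BP effect (n=2).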

CFR1R receptor = biological target: T1, CFR1R receptor (Homo sapiens, UniProt P34998); experiment: Activity at anti-target CFR1R receptor, cAMP assay in CRF1R-overexpression CHO-K1 cells; assay type: cell-based; settings: 100% = Sauvagine at 100 nM; for EC50: cAMP
T1 construct: host or cells: CHO-K1 (clone 2)
T1 sequence (P34998 24-415): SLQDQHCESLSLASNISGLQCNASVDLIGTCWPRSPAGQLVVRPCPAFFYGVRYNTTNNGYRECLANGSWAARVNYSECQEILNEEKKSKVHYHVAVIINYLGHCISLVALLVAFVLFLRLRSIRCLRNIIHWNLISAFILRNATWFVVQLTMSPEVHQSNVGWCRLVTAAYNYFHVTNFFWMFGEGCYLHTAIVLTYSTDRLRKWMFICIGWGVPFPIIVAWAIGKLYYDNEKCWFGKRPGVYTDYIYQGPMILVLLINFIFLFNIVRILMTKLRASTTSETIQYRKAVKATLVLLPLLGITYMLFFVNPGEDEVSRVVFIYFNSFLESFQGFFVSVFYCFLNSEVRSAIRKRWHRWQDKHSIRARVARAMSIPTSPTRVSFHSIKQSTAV
Summary of the method: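 cAMP readout in CRF1R-overexpressing CHO-K1 cells (clone 2), run as for the TeloHAEC assay at 4000 cells/well final. Cells came from cryopreserved banks. Sauvagine at 100 nM defined 100% activation.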

human CRF2a receptor = biological target: T2, human CRF2a receptor (Homo sapiens, UniProt Q13324); experiment: Activity at human CRF2a receptor, cAMP functional assay in TeloHEAC cells; assay type: cell-based; settings: TeloHEAC cells stably expressing human CRF2a receptor, relative to urocortin 2 (100 nM = 100%)
T2 construct: expressed in transfected cells; host or cells: TeloHEAC cells
T2 sequence (Q13324 1-411): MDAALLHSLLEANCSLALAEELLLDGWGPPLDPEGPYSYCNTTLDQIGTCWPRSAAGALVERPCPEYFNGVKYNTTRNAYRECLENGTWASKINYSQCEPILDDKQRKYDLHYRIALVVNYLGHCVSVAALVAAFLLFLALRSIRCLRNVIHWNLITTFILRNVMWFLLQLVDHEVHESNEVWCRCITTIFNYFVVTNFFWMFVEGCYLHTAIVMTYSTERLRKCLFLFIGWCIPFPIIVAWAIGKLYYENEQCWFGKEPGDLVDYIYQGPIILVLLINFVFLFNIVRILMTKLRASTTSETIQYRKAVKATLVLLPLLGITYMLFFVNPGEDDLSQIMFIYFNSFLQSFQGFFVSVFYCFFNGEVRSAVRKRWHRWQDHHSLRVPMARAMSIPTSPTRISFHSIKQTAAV
Summary of the method: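 TeloHEAC cells stably expressing human CRF2a (10000 cells/well, suspended in HBSS/20 mM HEPES with 2 mM IBMX) were exposed to compounds for 30 min at 37 °C. cAMP was read as the 665/620 nm fluorescence ratio after 1 h at room temperature. EC50 was derived relative to 100 nM urocortin 2, set as 100%.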

[1] = Chemical stability in buffer (pH 7.4 / pH 4.5), % purity loss; assay type: physicochemical; settings: 40° C. vs 5° C., 14 or 28 days; for Buffer stability pH 4.5 % purity loss: 100 mM acetate buffer pH 4.5; for Buffer stability pH 7.4 % purity loss: 100 mM phosphate buffer pH 7.4
Method: Solubility and chemical stability were studied in 100 mM phosphate buffer (pH 7.4) and 100 mM acetate buffer (pH 4.5). Test compound powders were dissolved in both buffers at a target concentration of 10 mg/mL and incubated for 1 hour at room temperature. After centrifugation at 2500 rcf for 15 minutes, 10 μL of supernatant was diluted with 190 μL of the incubation buffer and analyzed by LC-UV (Acquity UPLC-DAD, Waters). Solubility was calculated by comparing the peak area of the test compound in the buffer sample with the peak area of the same compound dissolved at 0.5 mg/mL in water:acetonitrile 1:1, 0.1% formic acid.
From the centrifuged supernatant, two additional 80 μL aliquots were collected and diluted with 160 μL of incubation buffer. One aliquot was stored at 5° C., while the other was stored at 40° C. After 14 or 28 days, the samples were analyzed by LC-UV. Chemical stability was calculated as % loss using the following equations: […]

Emax (% I) (CFR1R receptor) | EC50 (CFR1R receptor) [nM] | EC50 (human CRF2a receptor) [nM] | Buffer stability pH 4.5 % purity loss [1] | Buffer stability pH 7.4 % purity loss [1] | Compound | Systolic blood pressure (Mean) % change from baseline, 8 h (Sprague Dawley rats) [%] | Systolic blood pressure (Mean) % change from baseline, 12 h (Sprague Dawley rats) [%] | Systolic blood pressure (Mean) % change from baseline, 24 h (Sprague Dawley rats) [%] | Duration of action (Sprague Dawley rats) [h]
6 | > 250 | 0.28 | 0/0 ^ % | 0/0 ^ % | CC[C@H](C)[C@H](NC(C)=O)C(=O)N[C@H](C(=O)N[C@@H](CC(C)C)C(=O)N[C@@H](CO)C(=O)N[C@@H](CC(C)C)C(=O)N[C@@H](CC(=O)O)C(=O)N[C@H](C(=O)N1CCC[C@H]1C(=O)N[C@H](C(=O)N[C@@H](CCCCN)C(=O)N[C@@](C)(CC(C)C)C(=O)N[C@@H](CCCCNC(=O)CC[C@H](NC(=O)CCCCCCCCCCCCCCC(=O)O)C(=O)O)C(=O)N[C@@H](CCC(N)=O)C(=O)N[C@H](C(=O)N[C@@H](CC(C)C)C(=O)N[C@@H](CC(C)C)C(=O)N[C@@H](CCCCN)C(=O)N[C@@H](CCC(N)=O)C(=O)N[C@@H](CCC(=O)O)C(=O)N[C@@H](CCCNC(=N)N)C(=O)N[C@@H](CCC(N)=O)C(=O)N[C@@H](CCCCN)C(=O)N[C@@H](CCCCN)C(=O)N[C@@H](CCC(N)=O)C(=O)N[C@@H](CCCNC(=N)N)C(=O)N[C@@H](CCC(=O)O)C(=O)N[C@@H](CCC(N)=O)C(=O)N[C@@H](C)C(=O)N[C@@H](CCC(=O)O)C(=O)N[C@@H](CCCCN)C(=O)N[C@@H](CC(N)=O)C(=O)NC(C)(C)C(=O)N[C@@H](CCC(N)=O)C(=O)N[C@H](C(=O)N[C@@H](CC(C)C)C(=O)N[C@@H](CCC(=O)O)C(=O)N[C@@H](CCC(N)=O)C(=O)N[C@H](C(N)=O)C(C)C)[C@@H](C)CC)[C@@H](C)CC)[C@@H](C)CC)C(C)C)C(C)C [compound 19] (Ac-IVLSLDVPIK[αMeL]K([γGlu-C16 diacid])QILLKQERQKKQREQAEKN[Aib]QILEQV-NH2) | −21 | 0 | 10 | 11
13 | > 250 | 0.47 | 0% | 18.8% | CC[C@H](C)[C@H](NC(=O)[C@H](CCC(N)=O)NC(=O)[C@H](CCCCN)NC(=O)[C@H](CC(N)=O)NC(=O)[C@@H](NC(=O)[C@H](CCC(=O)O)NC(=O)[C@H](C)NC(=O)[C@H](CCC(N)=O)NC(=O)[C@H](CCC(=O)O)NC(=O)[C@H](CCCNC(=N)N)NC(=O)[C@H](CCC(N)=O)NC(=O)[C@H](CCCCN)NC(=O)[C@H](CCCCN)NC(=O)[C@H](CCC(N)=O)NC(=O)[C@H](CCCCN)NC(=O)[C@H](CCC(=O)O)NC(=O)[C@H](CCC(N)=O)NC(=O)[C@H](CCC(=O)O)NC(=O)[C@H](CC(C)C)NC(=O)[C@H](CC(C)C)NC(=O)[C@@H](NC(=O)[C@H](CCCCN)NC(=O)[C@H](CCCCNC(=O)CC[C@H](NC(=O)CCCCCCCCCCCCCCC(=O)O)C(=O)O)NC(=O)[C@H](CC(C)C)NC(=O)[C@H](CCCCN)NC(=O)[C@@H](NC(=O)[C@@H]1CCCN1C(=O)[C@H](NC(=O)[C@H](CC(=O)O)NC(=O)[C@H](CC(C)C)NC(=O)[C@H](CO)NC(=O)[C@H](CC(C)C)NC(=O)[C@@H](NC(C)=O)C(C)C)C(C)C)[C@@H](C)CC)[C@@H](C)CC)[C@@H](C)O)C(=O)N[C@@H](CC(C)C)C(=O)N[C@@H](C)C(=O)N[C@@H](CCC(N)=O)C(=O)N[C@H](C(N)=O)C(C)C [compound 33] (Ac-VLSLD[dV]PIKLK([γGlu-C16 diacid])KILLEQEKQKKQREQAETNKQILAQV-NH2) | −22 | −11 | 16 | 17
1 | > 250 | 0.3 |  | 0/nd ^ % | CC[C@H](C)[C@H](NC(C)=O)C(=O)N[C@H](C(=O)N[C@@H](CC(C)C)C(=O)N[C@@H](CO)C(=O)N[C@@H](CC(C)C)C(=O)N[C@@H](CC(=O)O)C(=O)N[C@H](C(=O)N1CCC[C@H]1C(=O)N[C@H](C(=O)N[C@@H](CCCCN)C(=O)N[C@@](C)(CC(C)C)C(=O)N[C@@H](CCCCNC(=O)CC[C@H](NC(=O)CCCCCCCCCCCCCCC(=O)O)C(=O)O)C(=O)N[C@@H](CCCCN)C(=O)N[C@H](C(=O)N[C@@H](CC(C)C)C(=O)N[C@@H](CC(C)C)C(=O)N[C@@H](CCC(=O)O)C(=O)N[C@@H](CCC(N)=O)C(=O)N[C@@H](CCC(=O)O)C(=O)N[C@@H](CCCCN)C(=O)N[C@@H](CCC(N)=O)C(=O)N[C@@H](CCCCN)C(=O)N[C@@H](CCCCN)C(=O)N[C@@H](CCC(N)=O)C(=O)N[C@@H](CCCNC(=N)N)C(=O)N[C@@H](CCC(=O)O)C(=O)N[C@@H](CCC(N)=O)C(=O)N[C@@H](C)C(=O)N[C@@H](CCC(=O)O)C(=O)N[C@H](C(=O)N[C@@H](CC(N)=O)C(=O)NC(C)(C)C(=O)N[C@@H](CCC(N)=O)C(=O)N[C@H](C(=O)N[C@@H](CC(C)C)C(=O)N[C@@H](C)C(=O)N[C@@H](CCC(N)=O)C(=O)N[C@H](C(N)=O)C(C)C)[C@@H](C)CC)[C@@H](C)O)[C@@H](C)CC)[C@@H](C)CC)C(C)C)C(C)C [compound 43] (Ac-IVLSLDVPIK[αMeL]K([γGlu-C16 diacid])KILLEQEKQKKQREQAETN[Aib]QILAQV-NH2) | −18 | −1 | 13 | 12
10 | > 250 | 0.09 | 0% | 9.0% | CC[C@H](C)[C@H](NC(C)=O)C(=O)N[C@H](C(=O)N[C@@H](CC(C)C)C(=O)N[C@@H](CO)C(=O)N[C@@H](CC(C)C)C(=O)N[C@@H](CC(=O)O)C(=O)N[C@@H](C(=O)N1CCC[C@H]1C(=O)N[C@H](C(=O)N[C@@H](CCCCN)C(=O)N[C@@H](CC(C)C)C(=O)N[C@@H](CCCCNC(=O)CC[C@H](NC(=O)CCCCCCCCCCCCCCC(=O)O)C(=O)O)C(=O)N[C@@H](CCCCN)C(=O)N[C@H](C(=O)N[C@@H](CC(C)C)C(=O)N[C@@H](CC(C)C)C(=O)N[C@@H](CCC(=O)O)C(=O)N[C@@H](CCC(N)=O)C(=O)N[C@@H](CCC(=O)O)C(=O)N[C@@H](CCCCN)C(=O)N[C@@H](CCC(N)=O)C(=O)N[C@@H](CCCCN)C(=O)N[C@@H](CCCCN)C(=O)N[C@@H](CCC(N)=O)C(=O)N[C@@H](CCCNC(=N)N)C(=O)N[C@@H](CCC(=O)O)C(=O)N[C@@H](CCC(N)=O)C(=O)N[C@@H](C)C(=O)N[C@@H](CCC(=O)O)C(=O)N[C@H](C(=O)N[C@@H](CC(N)=O)C(=O)N[C@@H](C)C(=O)N[C@@H](CCC(N)=O)C(=O)N[C@H](C(=O)N[C@@H](CC(C)C)C(=O)N[C@@H](C)C(=O)N[C@@H](CCC(N)=O)C(=O)N[C@H](C(N)=O)C(C)C)[C@@H](C)CC)[C@@H](C)O)[C@@H](C)CC)[C@@H](C)CC)C(C)C)C(C)C [compound 47] (Ac-IVLSLD[dV]PIKLK([γGlu-C16 diacid])KILLEQEKQKKQREQAETNAQILAQV-NH2) | −14 | −6 | 2 | 23
